Experimental data as given in patent US20190060249A1 (priority 2017, published 2019).

Experiments:
Format in all cases: biochemical
[1] = biological target: T1, ALDH1A2 (Homo sapiens, UniProt O94788); assay: ALDH fluorescence-coupled enzymatic assay, all-trans-retinal substrate, ALDH1A2
T1 sequence (O94788 1-518): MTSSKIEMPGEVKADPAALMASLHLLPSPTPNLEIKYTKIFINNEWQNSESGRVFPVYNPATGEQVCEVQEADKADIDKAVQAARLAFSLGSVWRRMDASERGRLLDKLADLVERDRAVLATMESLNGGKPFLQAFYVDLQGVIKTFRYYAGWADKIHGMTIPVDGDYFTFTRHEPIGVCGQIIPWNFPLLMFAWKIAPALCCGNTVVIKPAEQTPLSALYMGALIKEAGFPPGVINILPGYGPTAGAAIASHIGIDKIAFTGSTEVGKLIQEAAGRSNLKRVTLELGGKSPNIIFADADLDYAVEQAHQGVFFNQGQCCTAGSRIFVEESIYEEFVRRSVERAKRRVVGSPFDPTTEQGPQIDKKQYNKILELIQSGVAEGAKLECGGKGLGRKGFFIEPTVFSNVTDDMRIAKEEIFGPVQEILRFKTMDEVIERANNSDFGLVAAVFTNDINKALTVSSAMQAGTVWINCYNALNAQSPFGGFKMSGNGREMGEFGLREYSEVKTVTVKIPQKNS
Procedure: (§1) Assay conditions were modified from the original enzyme assay protocol above using 50 mM NaPPi buffer (pH 7.4), 2.5 mM NAD^+, 10 mM acetaldehyde or all-trans-retinal substrate with the addition of 1 U/mL diaphorase and 0.1 mM resazurin for the secondary reaction. Measurements were collected in triplicate at 25° C.

[2] = biological target: T2, ALDH7A1 (Homo sapiens, UniProt P49419); assay: ALDH enzymatic assay, recombinant ALDH7A1; settings: 5 μg/ml recombinant enzyme, 10 mM acetaldehyde, 20 μM Alda-341
T2 sequence (P49419 27-539): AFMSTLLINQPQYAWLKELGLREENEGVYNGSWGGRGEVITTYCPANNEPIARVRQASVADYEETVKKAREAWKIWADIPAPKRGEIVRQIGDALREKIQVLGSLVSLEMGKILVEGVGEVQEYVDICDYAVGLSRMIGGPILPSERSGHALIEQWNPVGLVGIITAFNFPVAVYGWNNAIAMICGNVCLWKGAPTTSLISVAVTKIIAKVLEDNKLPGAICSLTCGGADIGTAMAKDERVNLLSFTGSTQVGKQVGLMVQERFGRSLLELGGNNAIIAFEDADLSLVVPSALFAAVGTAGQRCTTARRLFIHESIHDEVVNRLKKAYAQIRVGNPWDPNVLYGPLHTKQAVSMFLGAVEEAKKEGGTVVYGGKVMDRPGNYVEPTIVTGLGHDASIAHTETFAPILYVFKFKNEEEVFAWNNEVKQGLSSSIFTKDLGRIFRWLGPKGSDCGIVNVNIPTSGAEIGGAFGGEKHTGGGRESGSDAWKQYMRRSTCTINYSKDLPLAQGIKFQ
Procedure: (§2) ALDH enzymatic assay: ALDH1A1, ALDH1A2, 2, 3A1, 3A2, 4A1, 5A1, 7A1 were measured as previously described using 5 μg/ml of recombinant protein (Chen, C. H., Cruz, L. A., and Mochly-Rosen, D. (2015) Pharmacological recruitment of aldehyde dehydrogenase 3A1 (ALDH3A1) to assist ALDH2 in acetaldehyde and ethanol metabolism in vivo. Proceedings of the National Academy of Sciences of the United States of America 112, 3074-3079). […] Assays were conducted in 50 mM NaPPi buffer (pH 7.4) in the presence of 2.5 mM NAD^+ and 10 mM substrate and measured in triplicate at 25° C. Dose response curve fits and EC50's were calculated using GraphPad Prism 7 software.

[3] = biological target: ALDH3A2 (Homo sapiens, UniProt P51648); assay: ALDH enzymatic assay, recombinant ALDH3A2; settings: 5 μg/ml recombinant enzyme, 10 mM acetaldehyde, 20 μM Alda-341
Procedure: as §2

[4] = tested on: mouse primary salivary sphere lysate; assay: ALDH fluorescence-coupled enzymatic assay in salivary sphere lysate; settings: 10 mM acetaldehyde, 100 μM Alda-341
Procedure: as §1
All measurements were collected in triplicate, and error bars represent SEM. *=p<0.05; ***=p<0.001 (Student's t-test).

[5] = biological target: T3, ALDH1A1 (Homo sapiens, UniProt P00352); assay: ALDH enzymatic assay, recombinant ALDH1A1; settings: 5 μg/ml recombinant enzyme, 10 mM acetaldehyde, 20 μM Alda-341
T3 sequence (P00352 1-501): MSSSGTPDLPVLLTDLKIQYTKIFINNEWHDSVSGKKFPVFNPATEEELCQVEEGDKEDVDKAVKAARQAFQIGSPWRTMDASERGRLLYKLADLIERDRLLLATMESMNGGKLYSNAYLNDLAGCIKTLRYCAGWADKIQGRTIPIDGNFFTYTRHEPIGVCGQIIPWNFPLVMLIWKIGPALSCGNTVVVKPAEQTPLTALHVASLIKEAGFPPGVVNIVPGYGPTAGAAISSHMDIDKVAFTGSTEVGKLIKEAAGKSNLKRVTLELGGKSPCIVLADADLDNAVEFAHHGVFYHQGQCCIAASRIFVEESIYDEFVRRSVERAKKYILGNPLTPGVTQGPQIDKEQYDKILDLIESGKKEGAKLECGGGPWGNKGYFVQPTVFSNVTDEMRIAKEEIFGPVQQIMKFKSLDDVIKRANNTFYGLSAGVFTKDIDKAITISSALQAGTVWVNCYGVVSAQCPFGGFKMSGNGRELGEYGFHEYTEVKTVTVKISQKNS
Procedure: as §2

Chain of ALDH3A2 (P51648 whole entry): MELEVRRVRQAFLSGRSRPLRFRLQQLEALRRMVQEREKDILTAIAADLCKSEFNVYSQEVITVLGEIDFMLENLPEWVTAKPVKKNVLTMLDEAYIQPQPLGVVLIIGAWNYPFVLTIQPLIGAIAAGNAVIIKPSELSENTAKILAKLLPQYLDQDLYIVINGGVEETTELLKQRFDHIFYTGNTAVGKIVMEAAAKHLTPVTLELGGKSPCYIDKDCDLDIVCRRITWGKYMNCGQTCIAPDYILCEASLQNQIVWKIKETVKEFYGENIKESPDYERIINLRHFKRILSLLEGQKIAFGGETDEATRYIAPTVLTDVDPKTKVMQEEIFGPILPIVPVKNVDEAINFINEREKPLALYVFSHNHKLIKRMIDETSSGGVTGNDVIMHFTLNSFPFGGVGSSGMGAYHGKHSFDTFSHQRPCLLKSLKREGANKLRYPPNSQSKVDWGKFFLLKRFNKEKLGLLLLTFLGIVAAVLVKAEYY

## C=C(C)[C@H]1CC=C(C)CC1 [Alda-341, D-limonene]
[1]
  catalytic activity of all trans-retinal in ALDH1A2: did not increase
[2]
  catalytic activity of ALDH7A1: did not increase
[3]
  catalytic activity of ALDH3A2: did not increase
[4]; 400 μg/mL Aldh3a1(−/−) salivary sphere lysate
  enzymatic activity of the lysate from Aldh3a1(−/−) mice: did not increase
[4]; 400 μg/mL C57BL/6 WT salivary sphere lysate
  increase of enzymatic activity of WT lysate: approximately 30%
[5]
  catalytic activity of ALDH1A1: did not increase
